Measured values taken from US11833133B2, “Solid oral pharmaceutical composition” (Orient Pharma Co., Ltd., priority 2020, dated 2023).

What was measured:
[1] = test system: chronic kidney disease patients; conditions: ezetimibe 10 mg/day co-administered with pitavastatin calcium 2 mg/day; cited from earlier work
[2] = test system: nephrectomized rats fed high-cholesterol; conditions: cited from earlier work
[3] = Dissolution test, USP apparatus II (Paddle Method) with sinkers, HPLC; assay type: physicochemical
Description: Dissolution Methods and Assay
Dissolution medium such as 0.1N HCl, phosphate buffer (pH 4.5) and phosphate buffer (pH 6.8) were prepared following USP Method. 0.3% Tween 80 was added into the medium to help solubilize the active ingredients. Dissolution conditions were summarized as in the following. Dissolution samples were analyzed by HPLC method.
Apparatus: USP apparatus II (Paddle Method) with sinkers.
Medium: 0.1N HCl, Phosphate Buffer phosphate buffer (pH 4.5) or Phosphate Buffer phosphate buffer (pH 6.8).
Filter: 10 μm HDPE full flow filter tips

[4] = Long term stability of composition of pitavastatin calcium and ezetimibe (25° C./60% RH); assay type: physicochemical; conditions: Example 5 composition, Alu-alu blisters
Description: The composition of pitavastatin calcium and ezetimibe prepared in Example 5 of the present disclosure were packed in Alu-alu blisters and stored under long term stability (25° C./60% RH). The assay of pitavastatin calcium and ezetimibe as well as the impurities were measured.

[5] = Example 1 single layered tablet, 5 min
[6] = Example 1 single layered tablet, 10 min
[7] = Example 1 single layered tablet, 15 min
[8] = Example 1 single layered tablet, 30 min
[9] = Example 1 single layered tablet, 45 min
[10] = Example 2 double layered tablet, 5 min
[11] = Example 2 double layered tablet, 10 min
[12] = Example 2 double layered tablet, 15 min
[13] = Example 2 double layered tablet, 30 min
[14] = Example 2 double layered tablet, 45 min
[15] = pellets in one capsule (Example 5), 5 min
[16] = pellets in one capsule (Example 5), 10 min
[17] = pellets in one capsule (Example 5), 15 min
[18] = pellets in one capsule (Example 5), 20 min
[19] = pellets in one capsule (Example 5), 30 min
[20] = pellets in one capsule (Example 5), 45 min

## O=C1[C@H](CC[C@H](O)c2ccc(F)cc2)[C@@H](c2ccc(O)cc2)N1c1ccc(F)cc1 [Ezetimibe, ezetimibe]
[1]
  Proteinuria-lowering effects: enhances proteinuria-lowering effects of pitavastatin calcium
[2]
  Kidney dysfunction / kidney damage: confers renoprotective effects
[3]; [5]
  % Released into 0.1 N HCl with 0.3% Tween 80 at sampling time (min): 56%
  % Released into Phosphate Buffer (pH 6.8) with 0.3% Tween 80 at sampling time (min): 54%
[3]; [6]
  % Released into 0.1 N HCl with 0.3% Tween 80 at sampling time (min): 70%
  % Released into Phosphate Buffer (pH 6.8) with 0.3% Tween 80 at sampling time (min): 77%
[3]; [7]
  % Released into 0.1 N HCl with 0.3% Tween 80 at sampling time (min): 77%
  % Released into Phosphate Buffer (pH 6.8) with 0.3% Tween 80 at sampling time (min): 86%
[3]; [8]
  % Released into 0.1 N HCl with 0.3% Tween 80 at sampling time (min): 86%
  % Released into Phosphate Buffer (pH 6.8) with 0.3% Tween 80 at sampling time (min): 94%
[3]; [9]
  % Released into 0.1 N HCl with 0.3% Tween 80 at sampling time (min): 91%
  % Released into Phosphate Buffer (pH 6.8) with 0.3% Tween 80 at sampling time (min): 96%
[3]; [10]
  % Released into 0.1 N HCl with 0.3% Tween 80 at sampling time (min): 30%
  % Released into Phosphate Buffer (pH 6.8) with 0.3% Tween 80 at sampling time (min): 42%
[3]; [11]
  % Released into 0.1 N HCl with 0.3% Tween 80 at sampling time (min): 56%
  % Released into Phosphate Buffer (pH 6.8) with 0.3% Tween 80 at sampling time (min): 72%
[3]; [12]
  % Released into 0.1 N HCl with 0.3% Tween 80 at sampling time (min): 67%
  % Released into Phosphate Buffer (pH 6.8) with 0.3% Tween 80 at sampling time (min): 80%
[3]; [13]
  % Released into 0.1 N HCl with 0.3% Tween 80 at sampling time (min): 79%
  % Released into Phosphate Buffer (pH 6.8) with 0.3% Tween 80 at sampling time (min): 88%
[3]; [14]
  % Released into 0.1 N HCl with 0.3% Tween 80 at sampling time (min): 83%
  % Released into Phosphate Buffer (pH 6.8) with 0.3% Tween 80 at sampling time (min): 91%
[3]; [15]
  % Released into 0.1 N HCl with 0.3% Tween 80 at sampling time (min): 71%
  % Released into Phosphate Buffer (pH 4.5) with 0.3% Tween 80 at sampling time (min): 64%
  % Released into Phosphate Buffer (pH 6.8) with 0.3% Tween 80 at sampling time (min): 69%
[3]; [16]
  % Released into 0.1 N HCl with 0.3% Tween 80 at sampling time (min): 95%
  % Released into Phosphate Buffer (pH 4.5) with 0.3% Tween 80 at sampling time (min): 99%
  % Released into Phosphate Buffer (pH 6.8) with 0.3% Tween 80 at sampling time (min): 96%
[3]; [17]
  % Released into 0.1 N HCl with 0.3% Tween 80 at sampling time (min): 99%
  % Released into Phosphate Buffer (pH 4.5) with 0.3% Tween 80 at sampling time (min): 103%
  % Released into Phosphate Buffer (pH 6.8) with 0.3% Tween 80 at sampling time (min): 102%
[3]; [18]
  % Released into 0.1 N HCl with 0.3% Tween 80 at sampling time (min): 100%
  % Released into Phosphate Buffer (pH 4.5) with 0.3% Tween 80 at sampling time (min): 104%
  % Released into Phosphate Buffer (pH 6.8) with 0.3% Tween 80 at sampling time (min): 103%
[3]; [19]
  % Released into 0.1 N HCl with 0.3% Tween 80 at sampling time (min): 101%
  % Released into Phosphate Buffer (pH 4.5) with 0.3% Tween 80 at sampling time (min): 105%
  % Released into Phosphate Buffer (pH 6.8) with 0.3% Tween 80 at sampling time (min): 104%
[3]; [20]
  % Released into 0.1 N HCl with 0.3% Tween 80 at sampling time (min): 101%
  % Released into Phosphate Buffer (pH 4.5) with 0.3% Tween 80 at sampling time (min): 105%
  % Released into Phosphate Buffer (pH 6.8) with 0.3% Tween 80 at sampling time (min): 104%
[4]; 3 Months
  Assay (%): 99.5%
  Impurities (%), Major: 0.06%
  Impurities (%), Total: 0.06%
[4]; 6 Months
  Assay (%): 101%
  Impurities (%), Major: 0.06%
  Impurities (%), Total: 0.06%
[4]; 9 Months
  Assay (%): 102.9%
  Impurities (%), Major: 0.06%
  Impurities (%), Total: 0.06%
[4]; 12 Months
  Assay (%): 99.7%
  Impurities (%), Major: 0.06%
  Impurities (%), Total: 0.06%
[4]; Initial
  Assay (%): 100%
  Impurities (%), Major: 0.06%
  Impurities (%), Total: 0.06%

## O=C([O-])C[C@H](O)C[C@H](O)/C=C/c1c(C2CC2)nc2ccccc2c1-c1ccc(F)cc1.O=C([O-])C[C@H](O)C[C@H](O)/C=C/c1c(C2CC2)nc2ccccc2c1-c1ccc(F)cc1.[Ca+2] [Pitavastatin Ca, pitavastatin calcium]
[2]
  Kidney dysfunction / kidney damage: additively ameliorates kidney damage
[3]; [5]
  % Released into 0.1 N HCl with 0.3% Tween 80 at sampling time (min): 79%
  % Released into Phosphate Buffer (pH 6.8) with 0.3% Tween 80 at sampling time (min): 69%
[3]; [6]
  % Released into 0.1 N HCl with 0.3% Tween 80 at sampling time (min): 84%
  % Released into Phosphate Buffer (pH 6.8) with 0.3% Tween 80 at sampling time (min): 90%
[3]; [7]
  % Released into 0.1 N HCl with 0.3% Tween 80 at sampling time (min): 86%
  % Released into Phosphate Buffer (pH 6.8) with 0.3% Tween 80 at sampling time (min): 95%
[3]; [8]
  % Released into 0.1 N HCl with 0.3% Tween 80 at sampling time (min): 89%
  % Released into Phosphate Buffer (pH 6.8) with 0.3% Tween 80 at sampling time (min): 97%
[3]; [9]
  % Released into 0.1 N HCl with 0.3% Tween 80 at sampling time (min): 90%
  % Released into Phosphate Buffer (pH 6.8) with 0.3% Tween 80 at sampling time (min): 98%
[3]; [10]
  % Released into 0.1 N HCl with 0.3% Tween 80 at sampling time (min): 81%
  % Released into Phosphate Buffer (pH 6.8) with 0.3% Tween 80 at sampling time (min): 90%
[3]; [11]
  % Released into 0.1 N HCl with 0.3% Tween 80 at sampling time (min): 87%
  % Released into Phosphate Buffer (pH 6.8) with 0.3% Tween 80 at sampling time (min): 96%
[3]; [12]
  % Released into 0.1 N HCl with 0.3% Tween 80 at sampling time (min): 89%
  % Released into Phosphate Buffer (pH 6.8) with 0.3% Tween 80 at sampling time (min): 97%
[3]; [13]
  % Released into 0.1 N HCl with 0.3% Tween 80 at sampling time (min): 86%
  % Released into Phosphate Buffer (pH 6.8) with 0.3% Tween 80 at sampling time (min): 99%
[3]; [14]
  % Released into 0.1 N HCl with 0.3% Tween 80 at sampling time (min): 89%
  % Released into Phosphate Buffer (pH 6.8) with 0.3% Tween 80 at sampling time (min): 100%
[3]; [15]
  % Released into 0.1 N HCl with 0.3% Tween 80 at sampling time (min): 90%
  % Released into Phosphate Buffer (pH 4.5) with 0.3% Tween 80 at sampling time (min): 82%
  % Released into Phosphate Buffer (pH 6.8) with 0.3% Tween 80 at sampling time (min): 81%
[3]; [16]
  % Released into 0.1 N HCl with 0.3% Tween 80 at sampling time (min): 99%
  % Released into Phosphate Buffer (pH 4.5) with 0.3% Tween 80 at sampling time (min): 100%
  % Released into Phosphate Buffer (pH 6.8) with 0.3% Tween 80 at sampling time (min): 98%
[3]; [17]
  % Released into 0.1 N HCl with 0.3% Tween 80 at sampling time (min): 100%
  % Released into Phosphate Buffer (pH 4.5) with 0.3% Tween 80 at sampling time (min): 102%
  % Released into Phosphate Buffer (pH 6.8) with 0.3% Tween 80 at sampling time (min): 102%
[3]; [18]
  % Released into 0.1 N HCl with 0.3% Tween 80 at sampling time (min): 100%
  % Released into Phosphate Buffer (pH 4.5) with 0.3% Tween 80 at sampling time (min): 102%
  % Released into Phosphate Buffer (pH 6.8) with 0.3% Tween 80 at sampling time (min): 102%
[3]; [19]
  % Released into 0.1 N HCl with 0.3% Tween 80 at sampling time (min): 100%
  % Released into Phosphate Buffer (pH 4.5) with 0.3% Tween 80 at sampling time (min): 102%
  % Released into Phosphate Buffer (pH 6.8) with 0.3% Tween 80 at sampling time (min): 102%
[3]; [20]
  % Released into 0.1 N HCl with 0.3% Tween 80 at sampling time (min): 99%
  % Released into Phosphate Buffer (pH 4.5) with 0.3% Tween 80 at sampling time (min): 102%
  % Released into Phosphate Buffer (pH 6.8) with 0.3% Tween 80 at sampling time (min): 102%
[4]; 3 Months
  Assay (%): 96.4%
  Impurities (%), Major: 0.03%
  Impurities (%), Total: 0.03%
[4]; 6 Months
  Assay (%): 97%
  Impurities (%), Major: 0.09%
  Impurities (%), Total: 0.09%
[4]; 9 Months
  Assay (%): 95%
  Impurities (%), Major: 0.08%
  Impurities (%), Total: 0.13%
[4]; 12 Months
  Assay (%): 96.5%
  Impurities (%), Major: 0.05%
  Impurities (%), Total: 0.05%
[4]; Initial
  Assay (%): 98.2%
  Impurities (%), Major: 0.02%
  Impurities (%), Total: 0.02%
